The test system of test [1] is luciferase reporter construct containing a UGA premature termination codon. Briefly: cell-based luciferase reporter assay (nonsense suppression). The note with it: 293T Human Embryonic Kidney cells stably transfected with UGA luciferase reporter; internal standard. The source says:
(§1) Two assays were developed for use in high throughput screens to identify small molecules that promote nonsense suppression. Each assay utilized luciferase because it is a functional reporter gene assay (light is only produced if the protein is functional) and it is extremely sensitive (Light intensity is proportional to luciferase concentration in the nM range). The first assay is a cell-based luciferase reporter assay and the second is a biochemical assay consisting of rabbit reticulocyte lysate and a nonsense-containing luciferase reporter mRNA. In the cell-based assay, a luciferase reporter construct containing a UGA premature termination codon was stably transfected in 293T Human Embryonic Kidney cells. In the biochemical assay, mRNA containing a UGA premature termination codon was used as a reporter in an in vitro translation reaction using rabbit reticulocyte lysate supplemented with tRNA, hemin, creatine kinase, amino acids, KOAc, Mg(OAc)2, and creatine phosphate. […] Synthetic mRNA was prepared in vitro using the T7 promoter and the MegaScript in vitro transcription kit (Ambion).

The subject of test [2] is mRNA containing a UGA premature termination codon. Briefly: biochemical in vitro translation assay, rabbit reticulocyte lysate with nonsense-containing luciferase reporter mRNA. The note with it: in vitro translation reaction using rabbit reticulocyte lysate, internal standard.
Source text: as §1
(In a reporter assay the amount or activity of a reporter protein is the signal.)

As for `CC(C)c1ccc(N2CC(=O)N(c3cccc(C(=O)O)c3)C2=O)cc1` [3-[3-(4-Isopropyl-phenyl)-2,5-dioxo-imidazolidin-1-yl]-benzoic acid], the luciferase activity entry in test [1] and in test [2] was “increased luciferase activity” in each case.

These data come from patent US8691511B2, “Hydroxylated 1,2,4-oxadiazole benzoic acid compounds, compositions thereof and their use in bioassays” (PTC Therapeutics, Inc., priority 2006, dated 2014).
